{"source": "patent US9750254B2", "about": "“Agricultural or horticultural chemical, method of controlling plant diseases, and product for controlling plant diseases” (Kureha Corporation, priority 2013, dated 2017)", "assay_type_in_all_cases": "cell-based", "key": {"[1]": {"tested_on": "Pseudocercosporella herpotrichoides", "assay": "Test Example 3: in vitro antimicrobial activity test, colony diameter on PDA plate with chemicals, 20° C., seven days", "description": "(§1) On the other hand, Glomerella cingulata was punched out from the vicinity of a Glomerella cingulata colony that was cultured in advance on another plate culture medium free of the chemicals using a cork borer having a diameter of 4 mm, and inoculated on the PDA plate culture medium in which the chemicals were mixed. After culturing at 25° C. for seven days, the diameter of the grown colony was measured. […] Additionally, in the above formula, R represents a fungal growth inhibition rate (%), dc represents the diameter of a colony on an untreated plate, and dt represents the diameter of a colony on a chemical-treated plate.\n(§2) Inhibition rate when used as a mixture (theoretical value)=α+(100−α)×β)/100 Note that, in the formula above, α and β respectively represent the inhibition rates of the compounds during single use of the compounds.\nPseudocercosporella herpotrichoides was punched out from the vicinity of a Pseudocercosporella herpotrichoides colony using a cork borer having a diameter of 4 mm, and inoculated on the PDA plate culture medium in which the chemicals were mixed. After culturing at 20° C. for seven days, the diameter of the grown colony was measured."}, "Rhynchosporium secalis": {"tested_on": "Rhynchosporium secalis", "assay": "Test Example 5: in vitro antimicrobial activity test, colony diameter on PDA plate with chemicals, 25° C., 14 days", "method": "Additionally, in the above formula, R represents a fungal growth inhibition rate (%), dc represents the diameter of a colony on an untreated plate, and dt represents the diameter of a colony on a chemical-treated plate. […] Rhynchosporium secalis was punched out from the vicinity of a Rhynchosporium secalis colony that was cultured in advance on another plate culture medium free of the chemicals using a cork borer having a diameter of 4 mm, and inoculated on the PDA plate culture medium in which the chemicals were mixed. After culturing at 25° C. for 14 days, the diameter of the grown colony was measured."}, "Pyrenophora graminea [2]": {"tested_on": "Pyrenophora graminea", "assay": "Test Example 7: in vitro antimicrobial activity test (dimoxystrobin), same manner as Test Example 6", "details": "Compound (1) 0 ppm", "description": "as §1, §2\n(§3) Pyrenophora graminea was punched out from the vicinity of a Pyrenophora graminea colony that was cultured in advance on another plate culture medium free of the chemicals using a cork borer having a diameter of 4 mm, and inoculated on the PDA plate culture medium in which the chemicals were mixed. After culturing at 25° C. for 3 days, the diameter of the grown colony was measured."}, "Pyrenophora graminea [3]": {"tested_on": "Pyrenophora graminea", "assay": "Test Example 6: in vitro antimicrobial activity test (picoxystrobin), colony diameter on PDA plate with chemicals, 25° C., 3 days", "details": "Compound (1) 0 ppm", "description": "as §1, §2, §3"}, "Septoria tritici": {"tested_on": "Septoria tritici", "assay": "Test Example 4: in vitro antimicrobial activity test, colony diameter on PDA plate with chemicals, 25° C., 14 days", "description": "as §1, §2\nIn this test example, the antimicrobial action of a mixed formulation of compound (1) and trifloxystrobin against Septoria tritici was tested.\nSeptoria tritici was punched out from the vicinity of a Septoria tritici colony that was cultured in advance on another plate culture medium free of the chemicals using a cork borer having a diameter of 4 mm, and inoculated on the PDA plate culture medium in which the chemicals were mixed."}, "Glomerella cingulata": {"tested_on": "Glomerella cingulata", "assay": "Test Example 1: in vitro antimicrobial activity test, colony diameter on PDA plate with chemicals, 25° C., seven days", "description": "as §1"}, "Gaeumannomyces graminis": {"tested_on": "Gaeumannomyces graminis", "assay": "Test Example 2: in vitro antimicrobial activity test, colony diameter on PDA plate with chemicals, 20° C., three days", "method": "On the other hand, Glomerella cingulata was punched out from the vicinity of a Glomerella cingulata colony that was cultured in advance on another plate culture medium free of the chemicals using a cork borer having a diameter of 4 mm, and inoculated on the PDA plate culture medium in which the chemicals were mixed. After culturing at 25° C. for seven days, the diameter of the grown colony was measured. […] Additionally, in the above formula, R represents a fungal growth inhibition rate (%), dc represents the diameter of a colony on an untreated plate, and dt represents the diameter of a colony on a chemical-treated plate. […] Meanwhile, Gaeumannomyces graminis was punched out from the periphery of a colony of Gaeumannomyces graminis using a cork borer having a diameter of 4 mm, and inoculated onto the PDA agar plates in which the chemical(s) was (were) mixed."}, "[4]": {"details": "Oculimacula yallundae, read-out: Fungal growth inhibition rate (%) Measured value"}, "[5]": {"details": "Zymoseptoria tritici, read-out: Fungal growth inhibition rate (%) Measured value"}, "[6]": {"details": "Colletotrichum gloeosporioides, read-out: Fungal growth inhibition rate (%) Measured value"}}, "data": [{"smiles": "CO/N=C(/C(=O)OC)c1ccccc1COc1ccccc1C", "note": "[Kresoxim-methyl, kresoxim-methyl]", "values": [{"measurement": "inhibition at 0.02 ppm", "setting": "[1]; [4]", "result": 21, "unit": "%"}, {"measurement": "inhibition at 0.08 ppm", "setting": "[1]; [4]", "result": 34, "unit": "%"}, {"measurement": "inhibition at 0.31 ppm", "setting": "[1]; [4]", "result": 60, "unit": "%"}, {"measurement": "inhibition at 1.25 ppm", "setting": "[1]; [4]", "result": 90, "unit": "%"}]}, {"smiles": "CO/N=C(/C1=NOCCO1)c1ccccc1Oc1ncnc(Oc2ccccc2Cl)c1F", "note": "[Fluoxastrobin, fluoxastrobin]", "values": [{"measurement": "inhibition at 0.005 ppm", "setting": "Rhynchosporium secalis; Rhynchosporium secalis, read-out: Fungal growth inhibition rate (%) Measured value", "result": 25, "unit": "%"}]}, {"smiles": "CNC(=O)/C(=N/OC)c1ccccc1COc1cc(C)ccc1C", "note": "[Dimoxystrobin, dimoxystrobin]", "values": [{"measurement": "Fungal growth inhibition rate (%) Measured value", "setting": "Pyrenophora graminea [2]; Dimoxystrobin 0.005 ppm", "result": 28, "unit": "%"}, {"measurement": "Fungal growth inhibition rate (%) Measured value", "setting": "Pyrenophora graminea [2]; Dimoxystrobin 0.02 ppm", "result": 55, "unit": "%"}, {"measurement": "Fungal growth inhibition rate (%) Measured value", "setting": "Pyrenophora graminea [2]; Dimoxystrobin 0.08 ppm", "result": 71, "unit": "%"}]}, {"smiles": "CO/C=C(/C(=O)OC)c1ccccc1COc1cccc(C(F)(F)F)n1", "note": "[Picoxystrobin, picoxystrobin]", "values": [{"measurement": "Fungal growth inhibition rate (%) Measured value", "setting": "Pyrenophora graminea [3]; Picoxystrobin 0.005 ppm", "result": 36, "unit": "%"}, {"measurement": "Fungal growth inhibition rate (%) Measured value", "setting": "Pyrenophora graminea [3]; Picoxystrobin 0.02 ppm", "result": 57, "unit": "%"}, {"measurement": "Fungal growth inhibition rate (%) Measured value", "setting": "Pyrenophora graminea [3]; Picoxystrobin 0.08 ppm", "result": 71, "unit": "%"}, {"measurement": "Fungal growth inhibition rate (%) Measured value", "setting": "Pyrenophora graminea [3]; Picoxystrobin 0.31 ppm", "result": 87, "unit": "%"}, {"measurement": "Fungal growth inhibition rate (%) Measured value", "setting": "Pyrenophora graminea [3]; Picoxystrobin 1.25 ppm", "result": 94, "unit": "%"}]}, {"smiles": "CON=C(C(=O)OC)c1ccccc1CON=C(C)c1cccc(C(F)(F)F)c1", "note": "[Trifloxystrobin, trifloxystrobin]", "values": [{"measurement": "inhibition at 0.02 ppm", "setting": "Septoria tritici; [5]", "result": 82, "unit": "%"}, {"measurement": "inhibition at 0.08 ppm", "setting": "Septoria tritici; [5]", "result": 84, "unit": "%"}, {"measurement": "inhibition at 0.31 ppm", "setting": "Septoria tritici; [5]", "result": 86, "unit": "%"}]}, {"smiles": "COC(=O)C1(C)CCC(Cc2ccc(Cl)cc2)C1(O)Cn1cncn1", "note": "(centres unmarked) [Compound (1)]", "values": [{"measurement": "Fungal growth inhibition rate (%) Measured value", "setting": "Septoria tritici; Compound (1) 0.02 ppm, Trifloxystrobin 0 ppm", "result": 9, "unit": "%"}, {"measurement": "Fungal growth inhibition rate (%) Measured value", "setting": "Rhynchosporium secalis; Compound (1) 1.25 ppm, Fluoxastrobin 0 ppm", "result": 87, "unit": "%"}, {"measurement": "Fungal growth inhibition rate (%) Measured value", "setting": "[1]; Compound (1) 0.078 ppm, Kresoxim-methyl 0 ppm", "result": 7, "unit": "%"}, {"measurement": "Fungal growth inhibition rate (%) Measured value", "setting": "Glomerella cingulata; Compound (1) 0.313 ppm, Pyraclostrobin 0 ppm", "result": 45, "unit": "%"}, {"measurement": "Fungal growth inhibition rate (%) Measured value", "setting": "Gaeumannomyces graminis; Compound (1) 0.078 ppm, Azoxystrobin 0 ppm", "result": 0, "unit": "%"}]}, {"smiles": "CO/C=C(/C(=O)OC)c1ccccc1Oc1cc(Oc2ccccc2C#N)ncn1", "note": "[Azoxystrobin, azoxystrobin]", "values": [{"measurement": "Fungal growth inhibition rate (%) Measured value", "setting": "Gaeumannomyces graminis; Compound (1) 0 ppm, Azoxystrobin 0.010 ppm", "result": 35, "unit": "%"}, {"measurement": "Fungal growth inhibition rate (%) Measured value", "setting": "Gaeumannomyces graminis; Compound (1) 0 ppm, Azoxystrobin 2.5 ppm", "result": 98, "unit": "%"}]}, {"smiles": "COC(=O)N(OC)c1ccccc1COc1ccn(-c2ccc(Cl)cc2)n1", "note": "[Pyraclostrobin, pyraclostrobin]", "values": [{"measurement": "inhibition at 0.1575 ppm", "setting": "Glomerella cingulata; [6]", "result": 73, "unit": "%"}, {"measurement": "inhibition at 0.63 ppm", "setting": "Glomerella cingulata; [6]", "result": 89, "unit": "%"}, {"measurement": "inhibition at 10 ppm", "setting": "Glomerella cingulata; [6]", "result": 100, "unit": "%"}]}]}
